PMC4382154, “Screening of the Pan-African Natural Product Library Identifies Ixoratannin A-2 and Boldine as Novel HIV-1 Inhibitors” (PLoS ONE, 2015)

What was measured:
hERG potassium channel = system: hERG potassium channel; design: method as in PMID 24963621; settings: two electrode voltage clamp, Xenopus oocytes; read-out: IC50 hERG potassium channel currents; cited from earlier work
[1] = system: HCV J4(1b)/JFH1(2a) chimera; assay: HCV replication assay in Huh-7.5 cells (NS5A flow cytometry); format: cell-based; settings: Hepatitis C virus, Huh7.5, 72 h
Description: The intergenotypic chimeric HCV used in this study—Bi-Gluc-J4(1b)/JFH1(2a) containing cell culture adaptive mutations in NS2 (T2996C) and NS3 (A4827T)—was previously described and subsequently modified to express Gaussia luciferase in the first cistron. HCV stocks used for infection were generated by electroporation of in vitro transcribed RNA into Huh-7.5.1 cells and pooling of supernatants harvested between 60–96 hr post-electroporation. HCV infectivity was determined by limiting dilution assay as previously described.
HCV cell culture was performed as described previously. Briefly, 4*10^4 Huh-7.5 cells were seeded into 24-well plates and incubated at 37°C and 5% CO2 overnight. Cells were then infected with HCV (multiplicity of infection = 0.3) for 6 hours, followed by removal of HCV and incubation with fresh medium containing compounds at stated concentrations. Cultures were then incubated for 72 hours, with no more than 0.1% DMSO present in culture medium. Cells were then trypsinized, resuspended in culture medium, and stained with the 9E10 alexa-fluor-conjugated antibody to NS5A [27]. Cells were fixed and analyzed for NS5A fluorescence by flow cytometry, and data were analyzed using FlowJo software. […] For each culture, NS5A fluorescence was determined as the percent gated cells relative to percent gated cells in infected cultures plus 0.1% DMSO. All experiments were performed in at least duplicate in at least two independent experiments.
We therefore assessed the effects of ixoratannin A-2, boldine, and BIT-225 on replication of HCV, which also encodes a viral ion channel and protease. Using an established cell culture system, Huh-7.5 cells were infected with an intergenotypic chimera between the J4 (genotype 1b) and JFH1 (genotype 2a) strain of HCV for 6 hours, followed by incubation with fresh medium containing compounds at defined concentrations. Infected cells were then incubated for an additional 72 hours. NS5A expression, a marker of HCV infection, was then detected by flow cytometry.

HIV-1RT = assay: microbe, parasite or virus in culture; format: cell-based; settings: for EC50: Human immunodeficiency virus 1, CEM-GXR, 96 h, read-out: EC50 HIV-1RT
Description: CEM-GXR cells are an immortalized CD4+ T-lymphocyte line engineered that naturally express the HIV-1 coreceptor CXCR4 and have been further engineered to express the HIV-1 co-receptor CCR5 and a Tat-driven LTR-GFP expression cassette. As such, intracellular GFP expression indicates HIV-1 infection [26]. Cultures of 10^5 CEM-GXR cells were seeded into 96-well plates with RPMI-1640 media (Sigma) supplemented with penicillin/streptomycin plus 20% fetal calf serum (R20+), infected with HIV-1 at a multiplicity of infection of 0.03 (to achieve 3% infected cells on Day 2), and incubated at 37°C and 5% CO2. 24 hours later, cells were pelleted at 750 g and resuspended in R20+ containing compound or 0.1% DMSO. […] Cells were then incubated at 37°C and 5% CO2 for an additional 72 h. 5,000 cells from each culture were measured for cell toxicity and GFP expression by flow cytometry. […] Background GFP expression in uninfected cultures was set at 0.05% GFP-positive cells. For each experiment, all data points were obtained in triplicate. All data are reported as the mean ± s.e.m. from at least 3 independent experiments performed with different virus stocks and/or performed on different days. […] EC50 and CC50 values for each compound were calculated from at least four concentrations. Statistical analyses were performed using Student’s unpaired t test, with a p value < 0.05 plus a Bonferroni correction to adjust for multiple comparisons considered significant.

HIV-1NL4-3 = assay: HIV-1 replication assay in PBMCs (p24Gag ELISA); format: cell-based; settings: Day 12
Description: PBMCs from HIV-1 negative subjects, purchased commercially (StemCell Technologies, Vancouver, Canada), were maintained in RPMI-1640 media (Sigma) supplemented with penicillin/streptomycin plus 10% fetal calf serum (R10+). 72 h prior to viral infection, PBMCs were stimulated by addition of 5 μg/mL phytohaemaglutanin (PHA) (Day 0) and maintained in R10+ medium supplemented with 100 units/mL human IL-2. At Day 3 following cellular activation, 3x10^5 cells were infected with HIV-1NL4-3 at a multiplicity of infection of 0.003 (0.3% infected cells) and incubated at 37°C for 6h, followed by wash and re-suspension in fresh R10+ medium supplemented with 100 units/mL human IL-2 and with or without compounds at defined concentrations. Culture supernatants were collected and replaced with fresh medium supplemented with human IL-2 every 3 days (i.e., Days 6, 9, and 12) with or without fresh compounds. Viral replication at day 12 was monitored by measuring cell culture supernatant levels of p24^Gag by ELISA (XpressBio, Frederick, MD) following manufacturer’s instructions.

HIV-1INT = HIV-1INT replication in CEM-GXR cells; format: cell-based; settings: for EC50: Human immunodeficiency virus 1, CEM-GXR, 96 h, read-out: EC50 HIV-1INT
Description: HIV-1Δvpu was constructed by digesting plasmid p210-13 3’ Δ-vpu with EcoRI and NheI enzymes. The resulting DNA fragment was then ligated into wild-type pNL4-3 plasmid digested with the same enzymes. HIV-1Δvpu and HIV-1NL4-3 viral stocks were prepared by transfection of HEK-293T cells, as previously described. Patient plasma-HIV-1 RNA sequences were analyzed for resistance mutations using the HIV Drug Resistance Database Genotype Resistance Interpretation Algorithm (hivdb.stanford.edu). Recombinant HIV-1NL4-3 expressing patient-derived HIV-1 sequences harboring resistance mutations to protease and reverse transcriptase inhibitors (HIV-1PR+RT), reverse transcriptase inhibitors (HIV-1RT), and integrase inhibitors (HIV-1INT) were generated by homologous recombination following co-transfection as reported.
CEM-GXR cells are an immortalized CD4+ T-lymphocyte line engineered that naturally express the HIV-1 coreceptor CXCR4 and have been further engineered to express the HIV-1 co-receptor CCR5 and a Tat-driven LTR-GFP expression cassette. As such, intracellular GFP expression indicates HIV-1 infection. Cultures of 10^5 CEM-GXR cells were seeded into 96-well plates with RPMI-1640 media (Sigma) supplemented with penicillin/streptomycin plus 20% fetal calf serum (R20+), infected with HIV-1 at a multiplicity of infection of 0.03 (to achieve 3% infected cells on Day 2), and incubated at 37°C and 5% CO2. 24 hours later, cells were pelleted at 750 g and resuspended in R20+ containing compound or 0.1% DMSO. […] Cells were then incubated at 37°C and 5% CO2 for an additional 72 h. 5,000 cells from each culture were measured for cell toxicity and GFP expression by flow cytometry. Flow cytometry data were analyzed using FlowJo v. 8.8.7 software (FlowJo LLC, Ashland, OR). […] Background GFP expression in uninfected cultures was set at 0.05% GFP-positive cells. For each experiment, all data points were obtained in triplicate. All data are reported as the mean ± s.e.m. from at least 3 independent experiments performed with different virus stocks and/or performed on different days. However, all experiments that compare HIV-1NL4-3 and mutant HIV-1 were performed in parallel. EC50 and CC50 values for each compound were calculated from at least four concentrations. Statistical analyses were performed using Student’s unpaired t test, with a p value < 0.05 plus a Bonferroni correction to adjust for multiple comparisons considered significant.
To investigate the mechanisms by which ixoratannin A-2 and boldine may block HIV-1 replication, we used a previously-reported HIV-1NL4-3 strain lacking the Vpu coding region (HIV-1Δvpu). We also constructed recombinant HIV-1NL4-3 strains harboring protease, reverse transcriptase, and/or integrase sequences of HIV-1 strains from patients who had developed resistance to the protease inhibitor Indinavir (IND), the non-nucleoside reverse transcriptase inhibitor Efavirenz (EFV), and/or the integrase inhibitor Raltegravir (RAL) (denoted HIV-1PR+RT, HIV-1RT, and HIV-1INT, respectively). Re-sequencing of the recombinant viruses confirmed the presence of multiple mutations known to confer resistance to IND, EFV, and/or RAL (Table 2).

[2] = read-out: inhibition of HCV replication
[3] = concentrations up to 75 or 100 μM, CEM-GXR cells

| Compound | IC50 (hERG potassium channel) [µM] | inhibition at 50 µM [1, 2] [%] | EC50 (HIV-1RT) [µM] | inhibition of HIV-1RT (HIV-1RT; [3]) [%] | reduced HIV-1 replication in PBMCs (p24Gag) (HIV-1NL4-3; 100 μM) [%] | EC50 (HIV-1INT) [µM] | inhibition of HIV-1INT (HIV-1INT; [3]) [%] | EC50 ([1]; read-out: EC50 HCV replication) [µM] | inhibition at 30 µM [1, 2] [%] | reduced HIV-1 replication in PBMCs (p24Gag) (HIV-1NL4-3; 25 μM) [%] | HIV-1INT replication fold higher than HIV-1NL4-3 (HIV-1INT; 75 μM, CEM-GXR cells) [fold] |
| --- | --- | --- | --- | --- | --- | --- | --- | --- | --- | --- | --- |
| COc1cc2c(cc1O)C[C@H]1c3c(cc(O)c(OC)c3-2)CCN1C [boldine] | 19.3 | 36 | > 100 | < 50 | 47.0 | > 100 | < 50 | – | – | – | – |
| Oc1cc(O)c2c(c1)OC1(c3ccc(O)c(O)c3)Oc3c4c(c5c(c3C2C1O)OC1(c2ccc(O)c(O)c2)Oc2cc(O)cc(O)c2C5C1O)OC(c1ccc(O)c(O)c1)C(O)C4 (stereo not shown) [ixoratannin A-2] | – | – | 33.7 | – | – | 38.4 | – | 23 | > 50 | 39.0 | 1.5 |
